From patent publication EP2286808A1, “Cytohesin inhibitors” (Rheinische Friedrich-Wilhelms Universität, priority 2009, dated 2011)

Key:
[1] = target: T1, sec7-domains of cytohesin-2 (ARNO) (Homo sapiens, UniProt Q99418); assay: guanine nucleotide exchange assay (GDP/GTP exchange on [Δ17]ARF1, tryptophan fluorescence); format: biochemical; details: for IC50: 250 nM [Δ17]ARF1, 10 nM ARNO-Sec7, 50 µM GTP, PBS pH 7.4, 37°C, read-out: IC50 value measured for the isolated Sec-7 domain of cytohesin-2; for inhibition of the sec7-domain of the isolated cytohesin-2 (relative exchange rate): 5µM amide compared with 5µM control SecinH3 (K), whose rate is set to 1, Fig. 1; for dual activity in cell adhesion and nucleotide exchange assays (summary in words): across nucleotide exchange and cell adhesion assays
T1 construct: ARNO-Sec7 (amino acids 50-255 of ARNO) were expressed in Escherichia coli; inferred from pET15 vector and Ni-NTA purification; made in house; host or cells: Escherichia coli
T1 sequence (Q99418 50-255): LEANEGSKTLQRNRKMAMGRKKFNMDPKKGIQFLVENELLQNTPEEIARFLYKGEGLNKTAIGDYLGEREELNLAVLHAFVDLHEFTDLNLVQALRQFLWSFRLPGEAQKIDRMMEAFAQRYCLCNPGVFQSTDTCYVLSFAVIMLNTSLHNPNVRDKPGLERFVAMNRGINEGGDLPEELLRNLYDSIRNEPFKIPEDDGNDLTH
Method: The inhibition of the exchange activity of the sec7-domains of cytohesin-2 (ARNO) of the amides according to formulas (5) to (30) was determined by a guanine nucleotide exchange assay.
For this purpose, the sec7-domains of cytohesin-2 (ARNO-Sec7) and [Δ17]ARF1, a mutant of the ADP-ribosylation factor (ARF) protein, were subcloned into pET15 vectors (Novagen) as described in Hafner, M. et al. Nature 444, 941-944 (2006). N-terminal truncated [Δ17]ARF1 (amino acids 18-181), lacking the first 17 amino acids and ARNO-Sec7 (amino acids 50-255 of ARNO) were expressed in Escherichia coli and purified by Ni-NTA chromatography (Ni-NTA agarose, Qiagen).
The exchange from […] (GDP) to guanidine-triphosphate (GTP) induces a conformation change of the ribosylation factor, as a result of which the fluorescence of a tryptophan radical of the protein is increased. GDP/GTP exchange was measured on [Δ17][…] by tryptophan fluorescence because a large increase in intrinsic fluorescence of ARF occurs upon exchange of GDP for GTP. All measurements were performed in PBS (137 mM NaCl, 2.7 mM KCl, 10.2 mM Na2HPO4, 1.8 mM KH2PO4) pH 7.4, 3 mM MgCl2 at 37°C.
[Δ17]ARF1 (1 µM) in PBS without MgCl2 was preincubated with 80 µM GDP in the presence of 2 mM ethylenediaminetetraacetic acid (EDTA) for 15 minutes. The bound GDP was stabilized by addition of MgCl2 at a final concentration of 3 mM and incubation for 5 minutes. For each exchange reaction 250 nM [Δ17]ARF1 was mixed with 10 nM ARNO-Sec7 (total volume 200 µl) in the absence or presence of inhibitoring amides according to formulas (5) to (30). The reaction was started by injection of 50 µM GTP.
The tryptophan fluorescence was measured at excitation and emission wavelength of 280 nm and 340 nm respectively. All fluorescent measurements were performed with a Varioskan microplate reader (Thermo Scientific), in 96-well plates. For analysis all data were fitted by linear regression.
The pan-active cytohesin inhibitor "SecinH3", a 1-, 2-, 4-substituted triazole according to formula (9) as disclosed in DE 10 2004 055 998 served as the control (K). The relative exchange rate of the control SecinH3 (K) was set to be 1.
The relative exchange rate was determined by comparing the initial linear rise of the fluorescence signal (exchange rate) in the presence of 5µM of the amides according to formulas (5) to (30) with the exchange rate in the presence of 5µM control SecinH3 (K), whereas the latter was set to be 1.
Further, the IC50 value inhibition of the sec7-domain of the isolated cytohesin-2 was determined. The IC50 value was be determined by plotting the initial linear rise of the fluorescence signal against the added concentrations of the amide. The IC50 value corresponds to the concentration of the amide at which the activity of the protein is reduced to half.

[2] = test system: adhesion of the T cell line Jurkat E6 to an immobilized ICAM-1-Fc-fusion protein; assay: cell adhesion assay, Jurkat E6 cells to immobilized ICAM-1-Fc-fusion protein; format: cell-based, human; details: 25 µM amide, OKT3 or PMA stimulation; 100% adhesion = 25 µM control SecinH3 (K); Fig. 3
Method: The ability of the amides according to formulas (5) to (30) to inhibit adhesion of the T cell line Jurkat E6 to an immobilized ICAM-1(Inter-Cellular Adhesion Molecule 1)-Fc-fusion protein was tested. On the T cell side, this interaction is exclusively mediated by the β-2 integrin LFA-1 that was enabled to bind to immobilized ICAM-1 through stimulation of Jurkat cells with an anti-TCR (T cell receptor) antibody or with the phorbol ester PMA (Phorbol 12-myristate 13-acetate). Cell adhesion to ICAM-Fc was carried out on 96-well dishes and was read out by fluorescence detection of total input versus bound cells which had been labeled with the DNA dye H33342.
Jurkat E6.1 cells were incubated in HBSS (Hank's BSS, PAA), 0.5% DMSO and, where indicated, 25 µM of the respective amide for one hour at 37°C, 5% CO2. After 30 minutes the cells were labeled with the fluorochrome bisbenzimide trihydrochloride H33342 (Sigma-Aldrich) at […] for 30 minutes at 37°C. 2 x 10^5 cells/ well were subsequently dispensed into a 96-well plate at 100µl/well. Prior to use plates were coated with 12µg/ml goat anti-human IgG for 90 minutes at 21°C, blocked with 1% BSA (Bovine serum albumin) in PBS overnight and incubated for 60 minutes with culture supernatants from CV-1 cells expressing an ICAM-1-Fc fusion protein.
Cells were either stimulated with 5 µg/ml purified anti CD3 antibody (OKT3, hybridome of ATCC, mAb OKT3 purified on protein A, according to standard methods from Current Protocols in Immunology, 5th Ed., Coligan et al., Edts, Wiley 2004) or with 50 ng/ml PMA, respectively. Cells were allowed to adhere to the ICAM-1-Fc coated dishes for 15 minutes and unbound cells were washed off with Hank's BSS (PAA). Adherent cells were read out using a fluorescence plate reader (Synergy-HT1, Biotek) at 485 nm in triplicates.
"100% adhesion" corresponds to the mean of OKT3 and PMA stimulated samples treated with 25 µM control control Secin H3 (K) as reference.

[3] = test system: Drosophila insulin signaling (d4E-BP mRNA levels in Drosophila S2 cells); assay: Drosophila insulin signaling assay, d4E-BP mRNA by quantitative RT-PCR; format: cell-based; details: 5 µg/ml insulin; for d4E-BP transcript levels: 10 µM amide for 18 hours, control SecinH3 (K) set to 1, Fig. 2
Method: In order to evaluate potential interference of the amides according to formulas (5) to (30) with Drosophila insulin signaling, S2 (Schneider 2 insect cell line, Invitrogen) cells were grown under starvation conditions and subsequently treated with insulin. This triggers a strong activation of the insulin signaling cascade resulting in the nuclear exclusion of the forkhead-box transcription factor dFOXO, which in turn down-regulates the expression of the transcriptional repressor d4E-BP (eIF4E-binding protein). […] This was measured by quantitative RT-PCR and compared to the effect of the control SecinH3 (K) in the same assay.
0.5 x 10^6 S2 cells were grown in 24-well dishes in medium (Schneiders Drosophila Medium, PAN Biotech) without FCS (heat-inactivated fetal calf serum) representing starvation condition. Six hours after seeding cells were treated for 18 hours with 10 µM of the respective amide according to formulas (5) to (30) or 10 µM SecinH3 (K) as reference. 22 hours after seeding cells were treated with 5 µg/ml insulin (Sigma). Controls were performed without amide and/or without insulin treatment. The amides were dissolved in dimethyl sulfoxide (DMSO). Final DMSO concentration in the cell culture medium was 0.5 %.
NucleoSpin 8 RNA Kit (Macherey-Nagel) was used for RNA preparation according to manufacturer's instructions. Genomic DNA digestion and first strand cDNA synthesis was carried out with 250 ng total RNA using QuantiTect Reverse Transkription Kit (Qiagen). Quantitative PCR was performed with the iQ5 Real-Time PCR detection system (Bio-Rad) and iQ SYBR Green Super Mix (Bio-Rad). Three reactions were done in parallel for each template. Real Time PCR was analysed using Bio-Rad iQ5 Optical System Software and Microsoft Excel.
The d4E-BP mRNA level after treatment of cells with the amides according to formulas (5) to (30) compared to the control SecinH3 is shown in Fig. 2. The d4E-BP mRNA level after treatment of cells with the control SecinH3 (K) was set to be 1.

Structure (SMILES) | IC50 [1] [µM] | inhibition of the adhesion of the Jurkat E6.1 cells to ICAM-1 [2] | dose-response behaviour of inhibition in nucleotide exchange assay [1] | potency in nucleotide exchange assay (summary in words) [1] | inhibition of the sec7-domain of the isolated cytohesin-2 (relative exchange rate) [1] | d4E-BP transcript levels [3] | increase in dFOXO-dependent d4E-BP transcript levels compared to the reference (K) ([3]; 10 µM amide) [fold] | dual activity in cell adhesion and nucleotide exchange assays (summary in words) [1]
COc1nc(-c2ccc3c(c2)OCO3)n(-c2ccc(NC(=O)CSc3ccccc3)cc2)n1 [SecinH3, reference compound] | 11.4 | – | – | – | – | – | – | –
CC(C)(C)c1ccc(C(=O)Nc2ccc(NC(=O)/C=C/c3ccco3)cc2)cc1 [formula (5)] | 3.1 | better than that of the control (K) | displayed a dose-response behaviour | potent inhibitors | better than that of the control SecinH3 (K) | increased | ~20 | –
CC(C)(C)c1ccc(C(=O)Nc2ccc(NC(=S)NC(=O)c3cccs3)cc2)cc1 [formula (6)] | 8 | better than that of the control (K) | – | potent inhibitors | better than that of the control SecinH3 (K) | increased | – | –
COc1nc(-c2ccc(C)cc2)n(-c2ccc(NC(=O)/C=C/c3ccccc3)cc2)n1 [formula (7)] | – | – | – | – | better than that of the control SecinH3 (K) | – | – | –
COc1ccc(-n2c(SCCC(=O)NC(N)=O)nnc2-c2ccc(C(C)(C)C)cc2)cc1Cl [formula (11)] | – | better than that of the control (K) | – | – | better than that of the control SecinH3 (K) | – | – | dual activity
C=CCn1c(SCC(=O)Nc2nsc(-c3ccccc3)n2)nc2scc(-c3ccccc3)c2c1=O [formula (20)] | 2.1 | – | displayed a dose-response behaviour | potent inhibitors | – | increased | – | dual activity
CC(C)(C)c1ccc(C(=O)Nc2ccc(NC(=O)c3ccc4c(c3)OCO4)cc2)cc1 [formula (29)] | – | better than that of the control (K) | – | – | – | – | – | dual activity
